{
  "source": "patent US6455582B1",
  "about": "“Sulohydroxamic acids and sulohyroxamates and their use as MEK inhibitors” (Warner-Lambert Company, priority 1999, dated 2002)",
  "biological_target": "GST-MEK / GST-MAPK (p45MEK, p44MAP kinase) cascade",
  "assay": "Cascade assay for inhibitors of the MAP kinase pathway (APK)",
  "type": "biochemical",
  "procedure": "Cascade assay for inhibitors of the MAP kinase pathway\nIncorporation of ^32P into myelin basic protein (MBP) is assayed in the presence of a glutathione S-transferase fusion protein containing p44MAP kinase (GST-MAPK) and a glutathione S-transferase fusion protein containing p45MEK (GST-MEK). The assay solution contains 20 mM HEPES, pH 7.4, 10 mM MgCl2, 1 mM MnCl2, 1 mM EGTA, 50,μM [γ-^32P]ATP, 10 μg GST-MEK, 0.5 μg GST-MAPK and 40 μg MBP in a final volume of 100 μL. Reactions are stopped after 20 minutes by addition of trichloroacetic acid and filtered through a GF/C filter mat. ^32P retained on the filter mat is determined using a 120S Betaplate. Compounds are assessed at 10 μM for ability to inhibit incorporation of ^32P\nTo ascertain whether compounds are inhibiting GST-MEK or GST MAPK, two additional protocols are employed. In the first protocol, compounds are added to tubes containing GST-MEK, followed by addition of GST-MAPK, MBP and [γ-^32P]ATP. In the second protocol, compounds are added to tubes containing both GST-MEK and GST-MAPK, followed by MBP and [γ-^32P]ATP.\nCompounds that show activity in both protocols are scored as MAPK inhibitors, while compounds showing activity in only the first protocol are scored as MEK inhibitors.",
  "data": [
    {"molecule": "O=S(=O)(NOCC1CC1)c1ccc(F)c(F)c1Nc1ccc(I)cc1Cl", "note": "[PD 0297447, 2-(2-Chloro-4-iodo-phenylamino)-N-cyclopropylmethoxy-3,4-difluoro-benzenesulfonamide]", "values": [
      {"measurement": "IC50", "value": 965, "unit": "nM"}
    ]}
  ]
}
